This is an account of results in publication doi:10.1101/2024.02.12.580006v1 (biorxiv, 2024).

One data set has as its target T1, SeHas (Streptococcus dysgalactiae, UniProt O50201).
T1 sequence (O50201 1-417): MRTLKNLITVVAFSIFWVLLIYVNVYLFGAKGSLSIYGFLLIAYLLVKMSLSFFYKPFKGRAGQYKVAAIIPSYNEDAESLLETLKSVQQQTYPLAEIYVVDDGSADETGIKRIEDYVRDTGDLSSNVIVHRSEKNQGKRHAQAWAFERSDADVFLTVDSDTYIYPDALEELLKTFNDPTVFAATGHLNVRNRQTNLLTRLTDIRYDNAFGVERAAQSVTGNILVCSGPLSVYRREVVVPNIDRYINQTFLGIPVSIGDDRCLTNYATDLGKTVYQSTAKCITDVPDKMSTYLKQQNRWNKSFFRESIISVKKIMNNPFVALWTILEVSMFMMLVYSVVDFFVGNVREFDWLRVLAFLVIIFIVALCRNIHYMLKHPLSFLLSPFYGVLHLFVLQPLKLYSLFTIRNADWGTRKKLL
The data set can be described thus: UDP-Glo luminescence, product inhibition, exponential fit. The class given is biochemical.

The target in a further data set is T2, PttCesA8 (Populus tremula x Populus tremuloides, UniProt Q6J8X0).
T2 sequence (Q6J8X0 1-978): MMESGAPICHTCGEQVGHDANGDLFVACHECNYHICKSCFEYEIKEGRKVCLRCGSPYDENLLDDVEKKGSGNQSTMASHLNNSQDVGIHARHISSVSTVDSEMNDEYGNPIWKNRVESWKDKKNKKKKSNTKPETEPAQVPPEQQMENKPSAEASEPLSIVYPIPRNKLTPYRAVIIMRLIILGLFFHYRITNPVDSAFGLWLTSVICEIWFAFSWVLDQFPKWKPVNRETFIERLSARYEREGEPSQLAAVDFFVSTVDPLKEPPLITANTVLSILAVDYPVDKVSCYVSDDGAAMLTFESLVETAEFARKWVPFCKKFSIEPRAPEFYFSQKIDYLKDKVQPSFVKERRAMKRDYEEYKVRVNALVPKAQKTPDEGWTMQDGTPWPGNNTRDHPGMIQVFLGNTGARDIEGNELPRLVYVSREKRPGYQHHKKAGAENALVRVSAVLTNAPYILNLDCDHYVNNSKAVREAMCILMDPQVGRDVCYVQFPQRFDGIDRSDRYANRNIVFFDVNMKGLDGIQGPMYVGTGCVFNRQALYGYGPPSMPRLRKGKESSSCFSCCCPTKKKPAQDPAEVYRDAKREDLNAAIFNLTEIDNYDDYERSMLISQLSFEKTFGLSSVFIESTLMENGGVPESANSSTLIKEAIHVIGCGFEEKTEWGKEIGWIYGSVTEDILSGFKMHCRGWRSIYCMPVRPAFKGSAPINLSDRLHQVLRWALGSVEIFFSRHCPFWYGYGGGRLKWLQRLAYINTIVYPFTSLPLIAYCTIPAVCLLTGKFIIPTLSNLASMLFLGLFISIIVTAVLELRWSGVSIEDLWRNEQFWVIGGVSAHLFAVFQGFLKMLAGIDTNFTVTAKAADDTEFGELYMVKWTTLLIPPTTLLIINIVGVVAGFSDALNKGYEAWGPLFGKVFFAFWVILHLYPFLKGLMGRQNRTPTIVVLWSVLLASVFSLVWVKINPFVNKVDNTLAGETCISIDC
The data set is described as above. The class given is biochemical.

Substrate in the data set “purified protein”: O=c1ccn([C@@H]2O[C@H](CO[P@@](=O)(O)O[P@@](=O)(O)O[C@H]3O[C@H](CO)[C@@H](O)[C@H](O)[C@H]3O)[C@@H](O)[C@H]2O)c(=O)[nH]1
Nature of the data set: purified protein. Conditions: 20 mM MnCl2, 37 °C, 30 min, proteoliposomes.

As for `O=c1ccn([C@@H]2O[C@H](COP(=O)(O)OP(=O)(O)O)[C@@H](O)[C@H]2O)c(=O)[nH]1` [UDP], the results for the inhibition constant (Ki) on SeHas and at PttCesA8 were 24.4 µM and 10.1 µM, respectively.

B1: PttCesA8 (Populus tremula x Populus tremuloides) (protein)
chain: T2 sequence (Q6J8X0 1-978)
B1: in “purified protein”, the Michaelis constant (Km) is 295.8 µM and the kcat stood at 21.57 s⁻¹.
